Source: patent US20080090895A1, “Novel Pharmaceutical Composition And Their Uses Thereof For Controlling The Different Forms Of Addiction To Drugs” (Trimaran Limited, priority 2004, published 2008)
Counter-ions that a name gives are not always drawn.

What was measured:
male mice of OF1 strain [1] = conditions: Baamonde et al., 1992; Browne, 1980; cited from earlier work
male mice of OF1 strain [2] = assay: Measurement of the analgesia by the hotplate test; format: in vivo
Description: (§1) The animals used in this study are male mice of OF1 strain weighing about 20 g at the start of the experiments (Charles River, France). They live in an environment whose daily lighting cycle (07:30 h; 17:30 h) is constant throughout the year, and the temperature is maintained at about 22° C. The mice have free access to water and food, and the experiments are performed in accordance with the international rules on ethics in animal experimentation.
(§2) The animals are treated chronically via the intraperitoneal route (IP) with amisulpride or physiological saline. The injections are performed twice a day, with an interval of about eight hours between each administration, over a period ranging between five days and three weeks. […] RB101 is administered on the day of the test intravenously (IV), 10 minutes before the start of the test (except for the measurements of locomotor activity performed immediately after injection).
3.2 Measurement of the Analgesia by the Hotplate Test
The mice are placed individually inside a cylinder, on a plate heated to 52±1° C. by a water circuit. The lag time for the jumping of the mice is measured, the value 100 of the percentage of analgesia corresponding to a time limited to 240 seconds in order to avoid skin lesions. The test is performed 10 minutes after injection of RB101 (5 mg/kg, IV) or of the vehicle. The results are expressed as a percentage of analgesia calculated by means of the following formula: (mean of the jumping lag times for the treated group—mean of the jumping lag times for the control group)/(240−mean of the jumping lag times for the control group)×100. The results are expressed as mean ±sem.

male mice of OF1 strain [3] = conditions: Baamonde et al., 1992; cited from earlier work
male mice of OF1 strain [4] = assay: Measurement of the locomotor activity; format: in vivo
male mice of OF1 strain [5] = assay: Test of forced swimming (Porsolt's test): model of depression; format: in vivo; conditions: 0.25 mg/kg, IV
Description: as §1, §2
3.3 Test of Forced Swimming (Porsolt's Test): Model of Depression
The mice are placed individually in a cylindrical container filled to a height of 15 cm with water, the water being at room temperature. After a delay of 2 minutes, the total immobile time of the animal is measured for 4 minutes. The movements necessary for the animal to keep its head above water are not counted.

male mice of OF1 strain [6] = assay: Conditioned preference of place: measurement of the psychic dependency; format: in vivo
Description: as §1, §2
3.4 Conditioned Preference of Place: Measurement of the Psychic Dependency
The apparatus for conditioned preference of place consists of a box divided into three separate compartments: a black compartment with a smooth floor, a black and white stripy compartment with a rough floor, and a neutral central compartment.
The Test Proceeds in 3 Phases:
• a pretest phase: the animal is placed in the neutral central compartment and has free access to the three compartments of the apparatus for 20 minutes. The time spent in each compartment is recorded using a camera connected to a computer. The mice showing a spontaneous preference for one of the compartments (i.e. spending more than 75% of the allotted time in one of the side compartments) are removed from the experiment.
After this first session, the animals are randomized in order to assign a treatment to them (morphine or physiological saline, SC) and the compartment in which they will receive the drug (black or black and white stripy compartment). […]

CSCC[C@H](N)CSSCC(Cc1ccccc1)C(=O)N[C@@H](Cc1ccccc1)C(=O)OCc1ccccc1 (stereo partly drawn) [RB101]
effect of the substance alone on locomotor activity in mice (literature) (male mice of OF1 strain [1]): increase in locomotor activity
percentage of analgesia (hotplate, jumping lag time) (male mice of OF1 strain [2]; RB101 5 mg/kg IV on the day of the test, alone or after amisulpride treatment for five days (20 mg/kg IP twice/day)): 38.4%±10.8%
percentage of analgesia (hotplate, jumping lag time) (male mice of OF1 strain [2]; RB101 dose effect, 5 mg/kg intravenously, 10 minutes before the test, mean ±sem): 45.2%±10.6%
effect of RB101 alone on immobile time in forced swimming (literature) (male mice of OF1 strain [3]): reduces the immobile time

CCN1CCCC1CNC(=O)c1cc(S(=O)(=O)CC)c(N)cc1OC (stereo not drawn) [amisulpride]
dose at which the reduction in locomotor activity is significant (male mice of OF1 strain [4]; doses tested 0.5, 2, 10, 20 and 50 mg/kg): ≥ 10 mg/kg

CCC(=O)C(CC(C)N(C)C)(c1ccccc1)c1ccccc1 (stereo not drawn) [methadone, Methadone hydrochloride]
effect of the substance alone on locomotor activity in mice (literature) (male mice of OF1 strain [1]): hyperlocomotor activity
analgesia of methadone alone in the hotplate test (male mice of OF1 strain [2]; 0.25 mg/kg, IV): pronounced analgesia
effect of methadone alone in locomotor activity (male mice of OF1 strain [4]; 0.25 mg/kg, IV): did not show a significant effect
effect of methadone alone in forced swimming (male mice of OF1 strain [5]): did not show a significant effect

CN1CC[C@]23c4c5ccc(O)c4O[C@H]2[C@@H](O)C=C[C@H]3[C@H]1C5.Cl [morphine, morphine hydrochloride]
conditioned place preference (test 1) (male mice of OF1 strain [6]; morphine 10 mg/kg SC conditioning, relative to the saline solution group): Place preference is observed
conditioned place preference (test 2) (male mice of OF1 strain [6]; morphine-conditioned mice, amisulpride 20 mg/kg IP twice a day for 5 days, RB101 IV on the day of test 2 (sixth day), or no such treatment, relative to control group): tendency toward persistence of the place preference
conditioned place preference (test 3) (male mice of OF1 strain [6]; morphine-conditioned mice, four days after test 2, no RB101 on the day of test 3, with or without prior amisulpride+RB101 treatment): A place preference is found
